The text below walks through data of US10093713B2, “GIP-GLP-1 dual agonist compounds and methods” (priority 2013, dated 2018).

Molecules are shown by their SMILES. pEC50: −log10 of the molar value. Where two headings read alike, the source gives them in different places. *1 amine or outer side, *2 acyl side, *3 side chain or, on linkers, in order; H or OH if unused. Where a SMILES comes first, the peptide text is derived from it. Side-chain parts run from the residue outwards. [ ]: non-standard residue; d: D form. The star is where a group is joined. C18 diacid = O=C(O)CCCCCCCCCCCCCCCCC(=O)*; γGlu = O=C(O)[C@H](CCC(=O)[*:2])N[*:1]; Dap = NC[C@H](N)C(=O)O; AEEA = NCCOCCOCC(=O)O; Aib = CC(C)(N)C(=O)O

One may read the pEC50 as −log10 of the EC50, conventionally taken in molar units.

Assay [1] concerns the target T1, human GIP R (Homo sapiens, UniProt P48546).
T1 construct: expressed in transfected cells
T1 sequence (P48546 22-466): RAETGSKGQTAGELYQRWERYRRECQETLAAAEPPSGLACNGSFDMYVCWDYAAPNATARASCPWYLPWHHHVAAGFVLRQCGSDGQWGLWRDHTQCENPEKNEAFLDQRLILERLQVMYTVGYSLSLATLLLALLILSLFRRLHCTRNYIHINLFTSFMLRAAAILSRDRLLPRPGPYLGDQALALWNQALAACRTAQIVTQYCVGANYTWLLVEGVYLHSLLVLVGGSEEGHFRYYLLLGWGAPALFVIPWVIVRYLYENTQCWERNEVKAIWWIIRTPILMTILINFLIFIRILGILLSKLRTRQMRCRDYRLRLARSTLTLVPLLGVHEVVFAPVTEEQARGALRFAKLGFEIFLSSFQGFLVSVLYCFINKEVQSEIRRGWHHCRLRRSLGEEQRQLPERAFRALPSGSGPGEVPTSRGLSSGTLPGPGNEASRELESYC
Put plainly: Human GIP receptor (GIP R) activity assay, cAMP induction (AlphaScreen) in HEK293 cells. The assay is classed as cell-based. Conditions: read-out: hGIP-R cAMP EC50 average value. As to the method: (§1) Human GIP Receptor (GIP R) and GLP-1 Receptor (GLP-1 R) Activity Assay
(§2) In vitro effects of peptide conjugates of the invention were assessed by measuring the induction of cAMP following stimulation of the respective receptor by GIP, GLP1 or analogues of these, as outlined in the invention, using the AlphaSceen® cAMP kit from Perkin-Elmer according to instructions. Briefly, HEK293 cells expressing the human GIP R or GLP-1 R (stable cell lines generated through transfection of the cDNA for human GIP R or GLP-1 and selection of stable clones) were seeded at 30,000 cells/well in 96-well microtiter plates coated with 0.01% poly-L-lysine, and grown for 1 day in culture in 200 μl growth medium (DMEM, 10% FCS, Penicillin (100 IU/ml), Streptomycin (100 μg/ml)). On the day of analysis, growth medium was removed and the cells were washed once with […] Tyrode's buffer (Tyrode's Salts (9.6 g/l), 10 mM HEPES, pH 7.4). […] The Assay buffer was removed and cells are lysed in 80 μl Lysis buffer (0.1% w/v BSA, 5 mM HEPES, 0.3% v/v Tween-20) per well. From each well 10 μl lysed cells was transferred to a 384-well plate and mixed with 15 μl bead-mix (1 Unit/15 μl anti-cAMP Acceptor Beads, 1 Unit/15 μl Donor Beads, and 1 Unit/15 μl Biotinylated cAMP in Assay Buffer). The plates were mixed and incubated in the dark for an hour at room temperature before measuring using an Envision™ plate reader (Perkin-Elmer).
(§3) The resulting cAMP curves were plotted as absolute cAMP concentrations (nM) over log (test compound concentration) and analyzed using the curve fitting program XLfit.
(§4) Parameters calculated to describe both the potency as well as the agonistic activity of each test compound on the receptors were:
(§5) EC50, a concentration resulting in a half-maximal elevation of cAMP levels, reflecting the potency of the test compound.

The target of assay [2] is T2, human GLP-1 R (Homo sapiens, UniProt P43220).
T2 construct: expressed in transfected cells
T2 sequence (P43220 24-463): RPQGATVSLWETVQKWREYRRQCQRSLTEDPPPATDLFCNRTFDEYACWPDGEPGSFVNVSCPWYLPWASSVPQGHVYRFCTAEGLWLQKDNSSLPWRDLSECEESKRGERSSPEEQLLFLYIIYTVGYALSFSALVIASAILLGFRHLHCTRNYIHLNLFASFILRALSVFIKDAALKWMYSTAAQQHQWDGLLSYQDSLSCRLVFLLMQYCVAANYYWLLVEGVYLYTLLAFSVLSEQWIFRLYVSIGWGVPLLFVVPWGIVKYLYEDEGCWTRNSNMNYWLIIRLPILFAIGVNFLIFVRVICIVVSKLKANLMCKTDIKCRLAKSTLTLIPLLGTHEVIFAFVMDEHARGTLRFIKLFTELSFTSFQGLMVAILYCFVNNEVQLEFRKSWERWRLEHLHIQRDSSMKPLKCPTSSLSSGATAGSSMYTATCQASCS
In words: Human GLP-1 receptor (GLP-1 R) activity assay, cAMP induction (AlphaScreen) in HEK293 cells. The assay is classed as cell-based. Conditions: read-out: hGLP1-R cAMP EC50 average value. The method, then:
as §1, §2, §3, §4, §5
On the technique in general: Alpha assays give light when donor and acceptor beads are brought close together.

[3] abbreviates: Table 2, HEK293 cells expressing human GIP R.
The mark [4] stands for this setting: Table 2a, secondary assay study.
[5] abbreviates: Table 2, HEK293 cells expressing human GLP-1 R.
[6] abbreviates: Table 3, most comprehensive data.

For the compound `CC[C@H](C)[C@H](NC(=O)[C@H](CO)NC(=O)[C@H](Cc1ccc(O)cc1)NC(=O)[C@H](CC(=O)O)NC(=O)[C@H](CO)NC(=O)[C@@H](NC(=O)[C@H](Cc1ccccc1)NC(=O)[C@@H](NC(=O)CNC(=O)[C@H](CCC(=O)O)NC(=O)C(C)(C)NC(=O)[C@@H](N)Cc1ccc(O)cc1)[C@@H](C)O)[C@@H](C)O)C(=O)N[C@@H](Cc1ccc(O)cc1)C(=O)N[C@@H](CC(C)C)C(=O)N[C@@H](CC(=O)O)C(=O)N[C@@H](CCCCN)C(=O)N[C@@H](CCCCNC(=O)COCCOCCNC(=O)COCCOCCNC(=O)CCCCCCCCCCCCCCCCC(=O)O)C(=O)N[C@@H](C)C(=O)N[C@@H](CCC(N)=O)C(=O)N[C@@H](CCCNC(=N)N)C(=O)N[C@@H](C)C(=O)N[C@@H](Cc1ccccc1)C(=O)N[C@H](C(=O)N[C@@H](CCC(=O)O)C(=O)N[C@@H](Cc1c[nH]c2ccccc12)C(=O)N[C@@H](CC(C)C)C(=O)N[C@@H](CC(C)C)C(=O)N[C@@H](C)C(=O)N[C@@H](CCC(N)=O)C(=O)NCC(=O)N1CCC[C@H]1C(=O)N[C@@H](CO)C(=O)N[C@@H](CO)C(=O)NCC(=O)N[C@@H](C)C(=O)N1CCC[C@H]1C(=O)N1CCC[C@H]1C(=O)N1CCC[C@H]1C(=O)N[C@@H](CO)C(N)=O)C(C)C` [Compound 5] (H-Y[Aib]EGTFTSDYSIYLDKK([AEEA-AEEA-C18 diacid])AQRAFVEWLLAQGPSSGAPPPS-NH2), the pEC50 in assay [1] (setting [3]) is 10.92; in assay [1] (setting [4]), 10.96; in assay [2] (setting [5]) it was 10.85; in assay [2] (setting [4]), 10.85.

In the case of `CC[C@H](C)[C@H](NC(=O)[C@H](CO)NC(=O)[C@H](Cc1ccc(O)cc1)NC(=O)[C@H](CC(=O)O)NC(=O)[C@H](CO)NC(=O)[C@@H](NC(=O)[C@H](Cc1ccccc1)NC(=O)[C@@H](NC(=O)CNC(=O)[C@H](CCC(=O)O)NC(=O)C(C)(C)NC(=O)[C@@H](N)Cc1ccc(O)cc1)[C@@H](C)O)[C@@H](C)O)C(=O)N[C@@H](Cc1ccc(O)cc1)C(=O)N[C@@H](CC(C)C)C(=O)N[C@@H](CC(=O)O)C(=O)N[C@@H](CCCCN)C(=O)N[C@@H](CCCCNC(=O)COCCOCCNC(=O)COCCOCCNC(=O)COCCOCCNC(=O)CC[C@H](NC(=O)CCCCCCCCCCCCCCCCC(=O)O)C(=O)O)C(=O)N[C@@H](C)C(=O)N[C@@H](CCC(N)=O)C(=O)N[C@@H](CCCNC(=N)N)C(=O)N[C@@H](C)C(=O)N[C@@H](Cc1ccccc1)C(=O)N[C@H](C(=O)N[C@@H](CCC(=O)O)C(=O)N[C@@H](Cc1c[nH]c2ccccc12)C(=O)N[C@@H](CC(C)C)C(=O)N[C@@H](CC(C)C)C(=O)N[C@@H](C)C(=O)N[C@@H](CCC(N)=O)C(=O)NCC(=O)N1CCC[C@H]1C(=O)N[C@@H](CO)C(=O)N[C@@H](CO)C(=O)NCC(=O)N[C@@H](C)C(=O)N1CCC[C@H]1C(=O)N1CCC[C@H]1C(=O)N1CCC[C@H]1C(=O)N[C@@H](CO)C(N)=O)C(C)C` [Compound 6], the pEC50 in assay [1] (setting [3]) is 11.31; in assay [1] (setting [4]), 11.30; in assay [1] (setting [6]), 11.30; in assay [2] (setting [5]), 10.80.

Regarding `CC[C@H](C)[C@H](NC(=O)[C@H](CO)NC(=O)[C@H](Cc1ccc(O)cc1)NC(=O)[C@H](CC(=O)O)NC(=O)[C@H](CO)NC(=O)[C@@H](NC(=O)[C@H](Cc1ccccc1)NC(=O)[C@@H](NC(=O)CNC(=O)[C@H](CCC(=O)O)NC(=O)C(C)(C)NC(=O)[C@@H](N)Cc1ccc(O)cc1)[C@@H](C)O)[C@@H](C)O)C(=O)N[C@@H](Cc1ccc(O)cc1)C(=O)N[C@@H](CC(C)C)C(=O)N[C@@H](CC(=O)O)C(=O)N[C@@H](CCCCN)C(=O)N[C@@H](CCCCNC(=O)COCCOCCNC(=O)COCCOCCNC(=O)[C@H](CN)NC(=O)CCCCCCCCCCCCCCCCC(=O)O)C(=O)N[C@@H](C)C(=O)N[C@@H](CCC(N)=O)C(=O)N[C@@H](CCCNC(=N)N)C(=O)N[C@@H](C)C(=O)N[C@@H](Cc1ccccc1)C(=O)N[C@H](C(=O)N[C@@H](CCC(=O)O)C(=O)N[C@@H](Cc1c[nH]c2ccccc12)C(=O)N[C@@H](CC(C)C)C(=O)N[C@@H](CC(C)C)C(=O)N[C@@H](C)C(=O)N[C@@H](CCC(N)=O)C(=O)NCC(=O)N1CCC[C@H]1C(=O)N[C@@H](CO)C(=O)N[C@@H](CO)C(=O)NCC(=O)N[C@@H](C)C(=O)N1CCC[C@H]1C(=O)N1CCC[C@H]1C(=O)N1CCC[C@H]1C(=O)N[C@@H](CO)C(N)=O)C(C)C` [Compound 7] (H-Y[Aib]EGTFTSDYSIYLDKK([AEEA-AEEA-Dap-C18 diacid])AQRAFVEWLLAQGPSSGAPPPS-NH2), the figures for the pEC50 in assay [1] (setting [3]) and in assay [2] (setting [5]) were 10.96 and 10.92, respectively.

`CC[C@H](C)[C@H](NC(=O)[C@H](CO)NC(=O)[C@H](Cc1ccc(O)cc1)NC(=O)[C@H](CC(=O)O)NC(=O)[C@H](CO)NC(=O)[C@@H](NC(=O)[C@H](Cc1ccccc1)NC(=O)[C@@H](NC(=O)CNC(=O)[C@H](CCC(=O)O)NC(=O)[C@@H](C)NC(=O)[C@@H](N)Cc1ccc(O)cc1)[C@@H](C)O)[C@@H](C)O)C(=O)N[C@@H](Cc1ccc(O)cc1)C(=O)N[C@@H](CC(C)C)C(=O)N[C@@H](CC(=O)O)C(=O)N[C@@H](CCCCN)C(=O)N[C@@H](CCCCNC(=O)COCCOCCNC(=O)COCCOCCNC(=O)CC[C@H](NC(=O)CCCCCCCCCCCCCCCCC(=O)O)C(=O)O)C(=O)N[C@@H](C)C(=O)N[C@@H](CCC(N)=O)C(=O)N[C@@H](CCCNC(=N)N)C(=O)N[C@@H](C)C(=O)N[C@@H](Cc1ccccc1)C(=O)N[C@H](C(=O)N[C@@H](CCC(=O)O)C(=O)N[C@@H](Cc1c[nH]c2ccccc12)C(=O)N[C@@H](CC(C)C)C(=O)N[C@@H](CC(C)C)C(=O)N[C@@H](C)C(=O)N[C@@H](CCC(N)=O)C(=O)NCC(=O)N1CCC[C@H]1C(=O)N[C@@H](CO)C(=O)N[C@@H](CO)C(=O)NCC(=O)N[C@@H](C)C(=O)N1CCC[C@H]1C(=O)N1CCC[C@H]1C(=O)N1CCC[C@H]1C(=O)N[C@@H](CO)C(N)=O)C(C)C` [Compound 9] (H-Y[dA]EGTFTSDYSIYLDKK([AEEA-AEEA-γGlu-C18 diacid])AQRAFVEWLLAQGPSSGAPPPS-NH2): the pEC50 in assay [1] (setting [3]) is 11.06; in assay [1] (setting [4]), 11.05; in assay [1] (setting [6]) it was 11.05; in assay [2] (setting [5]) it was 10.42; in assay [2] (setting [4]), 10.41.

In the case of `CC[C@H](C)[C@H](NC(=O)[C@H](CO)NC(=O)[C@H](Cc1ccc(O)cc1)NC(=O)[C@H](CC(=O)O)NC(=O)[C@H](CO)NC(=O)[C@@H](NC(=O)[C@H](Cc1ccccc1)NC(=O)[C@@H](NC(=O)CNC(=O)[C@H](CCC(=O)O)NC(=O)C(C)(C)NC(=O)[C@@H](N)Cc1ccc(O)cc1)[C@@H](C)O)[C@@H](C)O)C(=O)N[C@@H](Cc1ccc(O)cc1)C(=O)N[C@@H](CC(C)C)C(=O)N[C@@H](CCC(=O)O)C(=O)N[C@@H](CCCCN)C(=O)N[C@@H](CCCCNC(=O)COCCOCCNC(=O)COCCOCCNC(=O)CC[C@H](NC(=O)CCCCCCCCCCCCCCCCC(=O)O)C(=O)O)C(=O)N[C@@H](C)C(=O)N[C@@H](C)C(=O)N[C@@H](CCCCN)C(=O)N[C@@H](CCC(=O)O)C(=O)N[C@@H](Cc1ccccc1)C(=O)N[C@H](C(=O)N[C@@H](CCC(=O)O)C(=O)N[C@@H](Cc1c[nH]c2ccccc12)C(=O)N[C@@H](CC(C)C)C(=O)N[C@@H](CC(C)C)C(=O)N[C@@H](CO)C(=O)N[C@@H](C)C(=O)NCC(=O)N1CCC[C@H]1C(=O)N[C@@H](CO)C(=O)N[C@@H](CO)C(=O)NCC(=O)N[C@@H](C)C(=O)N1CCC[C@H]1C(=O)N1CCC[C@H]1C(=O)N1CCC[C@H]1C(=O)N[C@@H](CO)C(N)=O)C(C)C` [Compound 10] (H-Y[Aib]EGTFTSDYSIYLEKK([AEEA-AEEA-γGlu-C18 diacid])AAKEFVEWLLSAGPSSGAPPPS-NH2), the pEC50 in assay [1] (setting [3]) was 10.80; in assay [1] (setting [4]), 10.80; in assay [2] (setting [5]), 10.55; in assay [2] (setting [4]) it was 10.54.
